Laboratory results reported in PMC3140810 (International Journal of Women's Health, 2011).

Target: CYP3A4 (Homo sapiens, UniProt P08684)
Test: LC-MS/MS of 1-hydroxymidazolam, human liver microsomes
Type: biochemical

CYP3A4, sequence (P08684 2-503): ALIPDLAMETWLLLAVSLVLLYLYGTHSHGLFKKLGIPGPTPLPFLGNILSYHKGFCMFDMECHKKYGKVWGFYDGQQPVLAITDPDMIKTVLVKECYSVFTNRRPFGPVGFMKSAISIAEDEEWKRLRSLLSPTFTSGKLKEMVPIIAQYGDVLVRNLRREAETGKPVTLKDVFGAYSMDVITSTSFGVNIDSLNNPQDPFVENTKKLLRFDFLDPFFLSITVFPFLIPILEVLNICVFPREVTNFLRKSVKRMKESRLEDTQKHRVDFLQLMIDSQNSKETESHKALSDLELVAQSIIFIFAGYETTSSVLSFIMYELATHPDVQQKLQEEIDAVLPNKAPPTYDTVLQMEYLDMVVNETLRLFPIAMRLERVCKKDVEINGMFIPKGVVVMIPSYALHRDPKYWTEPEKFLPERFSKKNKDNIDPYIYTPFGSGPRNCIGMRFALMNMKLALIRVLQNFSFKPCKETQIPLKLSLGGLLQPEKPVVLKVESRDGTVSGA

Liver microsome inhibition genistein (25 μM): 19%
SMILES: O=c1c(-c2ccc(O)cc2)coc2cc(O)cc(O)c12 [genistein]
